The values that follow come from PMC5598064 (Cardiovascular Diabetology, 2017).

Like-named read-outs stand apart in the source and are kept apart here. Some results are limits rather than exact numbers.

For data set [1], the system named is healthy individuals. To be noted: in vivo, po. How it is done:
(§1) Participants who were randomized to 75 or 100 mg received their second dose 30 min before consuming the high fat breakfast. Vital sign and 12-lead electrocardiogram (ECG) measurements were collected at screening, at various times throughout the study, and at discharge.

The conditions of data set [2]: healthy individuals, saxagliptin 5 mg, highest recommended therapeutic dose; cited from earlier work.
The test system of data set [3] is healthy individuals. The conditions noted are these: for concentration-dependent effect on QTcP: in vivo. The source says:
(§2) In a randomized, double-blind, 4-period, 4-treatment, cross-over tQTc study, healthy individuals were randomized to one of four treatment sequence groups. […] Serial blood samples for pharmacokinetic analysis were collected on day 4 of each period.
To account for the high degree of correlation between heart rate and QT interval, various correction formulae, including Bazett’s formula (QTcB), Fridericia’s formula (QTcF), QT interval corrected for heart rate (QTc) based on linear population-based analysis (QTcP), and QT interval corrected for heart rate based on log-linear population-based analysis (QTcLogP) were applied to obtain a QT interval independent of heart rate.

The subject of data set [4] is healthy individuals. To be noted: in vivo. As for the experimental part:
(§3) All doses were administered 1 h before consumption of a standard American Heart Association Step 1 diet (≤30% of calories from fats) or a standard liquid meal on days 8 and 13 (BoostPlus®; Nestlé). […] Vital sign and 12-lead ECG measurements were collected at screening, at various times throughout the study, and at discharge. Multiple blood samples for pharmacokinetic analysis were collected on days 1–2 and 14–15.

Data set [5] has as its system dogs. The conditions noted are these: dog, in vivo.
Data set [6] addresses L type Ca^2+. As to the kind of experiment: Radioligand binding, cardiovascular-related targets. The conditions noted are these: antagonism of radioligand binding; read-out: IC50 or EC50.
Data set [7] deals with rabbit Purkinje fibers. The conditions noted are these: mean (SEM).
Data set [8] deals with healthy participants and patients with T2D. The conditions noted are these: human, in vivo. How it is done:
as §1, §3, §2
In a randomized, placebo-controlled, sequential MAD study, 40 patients with T2D were randomized to receive 2.5, 5, 15, 30, or 50 mg/day or matching placebo for 14 days. All doses were administered after consumption of a standard breakfast. […] Vital sign measurements and 12-lead ECG measurements were collected at screening, at various times throughout the study, and at discharge. Serial blood samples for pharmacokinetic analysis were collected on days 1, 7, and 14.

The subject of data set [9] is rat. To be noted: in vivo, iv, 5.9 mg/kg.
The target of data set [10] is Cardiac hNAV1.5 (Homo sapiens, UniProt Q14524). As to the kind of experiment: Radioligand binding, cardiovascular-related targets.
For data set [11], the target named is T1, Muscarinic M2 (Homo sapiens, UniProt P08172).
T1 sequence (P08172 1-466): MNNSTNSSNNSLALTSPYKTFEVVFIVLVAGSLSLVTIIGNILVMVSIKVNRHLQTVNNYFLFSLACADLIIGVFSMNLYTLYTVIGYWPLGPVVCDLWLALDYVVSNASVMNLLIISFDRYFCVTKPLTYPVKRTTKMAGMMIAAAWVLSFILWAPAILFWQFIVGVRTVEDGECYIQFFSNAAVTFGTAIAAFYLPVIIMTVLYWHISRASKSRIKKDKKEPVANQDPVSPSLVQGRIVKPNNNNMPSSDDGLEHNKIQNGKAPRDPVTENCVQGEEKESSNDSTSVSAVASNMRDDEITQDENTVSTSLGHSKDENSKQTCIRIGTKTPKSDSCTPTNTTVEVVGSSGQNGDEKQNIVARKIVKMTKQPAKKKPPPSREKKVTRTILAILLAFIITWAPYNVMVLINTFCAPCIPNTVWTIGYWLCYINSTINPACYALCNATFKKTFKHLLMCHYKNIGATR
Described as above.

The test system of data set [12] is rodents and non-rodents. The conditions noted are these: in vivo, po.
The subject of data set [13] is monkeys. To be noted: monkey, in vivo.
The target in data set [14] is PDE (phosphodiesterase-3). Nature of the data set: Radioligand binding, cardiovascular-related targets. The conditions noted are these: antagonism of radioligand binding; read-out: IC50 or EC50.
In data set [15] the test system is dog. To be noted: in vivo, iv, 5.9 mg/kg.
For data set [16], the system named is receptors, ion channels, and enzymes. As to the kind of experiment: Radioligand binding panel, all targets assessed. To be noted: 10 μM.
Data set [17] deals with GABA-A α1B2γ2 (Homo sapiens, UniProt P14867+P18507+P47870). As to the kind of experiment: Radioligand binding, cardiovascular-related targets.
For data set [18], the target named is ACE. The data set is described as above.
Data set [19] addresses T2, Adrenergic α1β (Homo sapiens, UniProt P35368).
T2 sequence (P35368 1-520): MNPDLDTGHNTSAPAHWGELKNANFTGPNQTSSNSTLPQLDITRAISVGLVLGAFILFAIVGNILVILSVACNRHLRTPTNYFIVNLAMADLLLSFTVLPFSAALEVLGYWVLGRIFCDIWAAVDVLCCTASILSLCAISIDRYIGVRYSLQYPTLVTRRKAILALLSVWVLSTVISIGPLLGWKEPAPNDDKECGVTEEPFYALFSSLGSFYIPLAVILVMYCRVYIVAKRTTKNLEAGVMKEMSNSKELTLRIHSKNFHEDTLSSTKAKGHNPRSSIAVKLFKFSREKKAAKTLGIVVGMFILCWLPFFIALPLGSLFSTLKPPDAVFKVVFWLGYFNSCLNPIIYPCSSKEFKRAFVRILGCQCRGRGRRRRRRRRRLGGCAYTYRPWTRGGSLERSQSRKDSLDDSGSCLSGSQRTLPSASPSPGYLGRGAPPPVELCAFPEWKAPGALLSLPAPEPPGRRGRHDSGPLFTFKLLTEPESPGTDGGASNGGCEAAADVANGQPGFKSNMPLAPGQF
The description is as above.

Chain of GABA-A α1B2γ2 (P14867 28-456): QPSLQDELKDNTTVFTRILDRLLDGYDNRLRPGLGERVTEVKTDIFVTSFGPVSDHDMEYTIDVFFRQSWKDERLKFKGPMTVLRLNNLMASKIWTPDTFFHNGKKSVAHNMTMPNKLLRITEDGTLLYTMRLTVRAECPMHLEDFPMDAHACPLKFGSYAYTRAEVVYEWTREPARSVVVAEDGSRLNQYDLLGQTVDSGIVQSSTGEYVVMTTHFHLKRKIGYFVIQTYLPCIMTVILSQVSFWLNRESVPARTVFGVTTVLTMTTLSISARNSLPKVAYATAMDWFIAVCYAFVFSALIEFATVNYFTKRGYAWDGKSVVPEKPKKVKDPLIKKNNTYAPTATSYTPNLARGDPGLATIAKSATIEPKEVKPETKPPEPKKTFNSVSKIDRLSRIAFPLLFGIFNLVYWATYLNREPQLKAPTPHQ
Chain of GABA-A α1B2γ2 (P47870 25-512 limits assumed): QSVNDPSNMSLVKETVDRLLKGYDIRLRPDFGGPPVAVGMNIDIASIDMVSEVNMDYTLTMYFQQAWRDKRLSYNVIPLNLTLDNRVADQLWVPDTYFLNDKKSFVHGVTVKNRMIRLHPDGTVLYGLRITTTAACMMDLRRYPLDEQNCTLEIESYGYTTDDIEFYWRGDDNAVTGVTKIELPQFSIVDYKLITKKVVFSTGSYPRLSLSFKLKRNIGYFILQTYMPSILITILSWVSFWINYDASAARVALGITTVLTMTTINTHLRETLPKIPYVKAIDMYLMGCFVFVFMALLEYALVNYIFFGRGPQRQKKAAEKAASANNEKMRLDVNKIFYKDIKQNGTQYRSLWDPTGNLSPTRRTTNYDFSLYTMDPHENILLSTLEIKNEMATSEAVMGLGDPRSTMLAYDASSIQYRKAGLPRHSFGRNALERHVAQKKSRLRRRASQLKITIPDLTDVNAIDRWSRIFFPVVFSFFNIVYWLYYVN
Chain of GABA-A α1B2γ2 (P18507 40-475): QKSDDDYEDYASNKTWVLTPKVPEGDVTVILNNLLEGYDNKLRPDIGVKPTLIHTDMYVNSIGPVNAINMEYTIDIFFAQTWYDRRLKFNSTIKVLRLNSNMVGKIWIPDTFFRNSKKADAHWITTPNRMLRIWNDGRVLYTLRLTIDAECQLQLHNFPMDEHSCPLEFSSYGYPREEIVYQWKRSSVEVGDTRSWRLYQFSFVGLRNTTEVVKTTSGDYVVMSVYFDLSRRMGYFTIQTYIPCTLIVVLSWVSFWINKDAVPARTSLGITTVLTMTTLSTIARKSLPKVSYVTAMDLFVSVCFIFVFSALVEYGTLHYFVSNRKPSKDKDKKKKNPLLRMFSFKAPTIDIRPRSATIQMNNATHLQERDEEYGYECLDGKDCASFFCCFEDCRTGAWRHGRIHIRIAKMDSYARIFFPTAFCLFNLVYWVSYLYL
Chain of Cardiac hNAV1.5 (Q14524 whole entry): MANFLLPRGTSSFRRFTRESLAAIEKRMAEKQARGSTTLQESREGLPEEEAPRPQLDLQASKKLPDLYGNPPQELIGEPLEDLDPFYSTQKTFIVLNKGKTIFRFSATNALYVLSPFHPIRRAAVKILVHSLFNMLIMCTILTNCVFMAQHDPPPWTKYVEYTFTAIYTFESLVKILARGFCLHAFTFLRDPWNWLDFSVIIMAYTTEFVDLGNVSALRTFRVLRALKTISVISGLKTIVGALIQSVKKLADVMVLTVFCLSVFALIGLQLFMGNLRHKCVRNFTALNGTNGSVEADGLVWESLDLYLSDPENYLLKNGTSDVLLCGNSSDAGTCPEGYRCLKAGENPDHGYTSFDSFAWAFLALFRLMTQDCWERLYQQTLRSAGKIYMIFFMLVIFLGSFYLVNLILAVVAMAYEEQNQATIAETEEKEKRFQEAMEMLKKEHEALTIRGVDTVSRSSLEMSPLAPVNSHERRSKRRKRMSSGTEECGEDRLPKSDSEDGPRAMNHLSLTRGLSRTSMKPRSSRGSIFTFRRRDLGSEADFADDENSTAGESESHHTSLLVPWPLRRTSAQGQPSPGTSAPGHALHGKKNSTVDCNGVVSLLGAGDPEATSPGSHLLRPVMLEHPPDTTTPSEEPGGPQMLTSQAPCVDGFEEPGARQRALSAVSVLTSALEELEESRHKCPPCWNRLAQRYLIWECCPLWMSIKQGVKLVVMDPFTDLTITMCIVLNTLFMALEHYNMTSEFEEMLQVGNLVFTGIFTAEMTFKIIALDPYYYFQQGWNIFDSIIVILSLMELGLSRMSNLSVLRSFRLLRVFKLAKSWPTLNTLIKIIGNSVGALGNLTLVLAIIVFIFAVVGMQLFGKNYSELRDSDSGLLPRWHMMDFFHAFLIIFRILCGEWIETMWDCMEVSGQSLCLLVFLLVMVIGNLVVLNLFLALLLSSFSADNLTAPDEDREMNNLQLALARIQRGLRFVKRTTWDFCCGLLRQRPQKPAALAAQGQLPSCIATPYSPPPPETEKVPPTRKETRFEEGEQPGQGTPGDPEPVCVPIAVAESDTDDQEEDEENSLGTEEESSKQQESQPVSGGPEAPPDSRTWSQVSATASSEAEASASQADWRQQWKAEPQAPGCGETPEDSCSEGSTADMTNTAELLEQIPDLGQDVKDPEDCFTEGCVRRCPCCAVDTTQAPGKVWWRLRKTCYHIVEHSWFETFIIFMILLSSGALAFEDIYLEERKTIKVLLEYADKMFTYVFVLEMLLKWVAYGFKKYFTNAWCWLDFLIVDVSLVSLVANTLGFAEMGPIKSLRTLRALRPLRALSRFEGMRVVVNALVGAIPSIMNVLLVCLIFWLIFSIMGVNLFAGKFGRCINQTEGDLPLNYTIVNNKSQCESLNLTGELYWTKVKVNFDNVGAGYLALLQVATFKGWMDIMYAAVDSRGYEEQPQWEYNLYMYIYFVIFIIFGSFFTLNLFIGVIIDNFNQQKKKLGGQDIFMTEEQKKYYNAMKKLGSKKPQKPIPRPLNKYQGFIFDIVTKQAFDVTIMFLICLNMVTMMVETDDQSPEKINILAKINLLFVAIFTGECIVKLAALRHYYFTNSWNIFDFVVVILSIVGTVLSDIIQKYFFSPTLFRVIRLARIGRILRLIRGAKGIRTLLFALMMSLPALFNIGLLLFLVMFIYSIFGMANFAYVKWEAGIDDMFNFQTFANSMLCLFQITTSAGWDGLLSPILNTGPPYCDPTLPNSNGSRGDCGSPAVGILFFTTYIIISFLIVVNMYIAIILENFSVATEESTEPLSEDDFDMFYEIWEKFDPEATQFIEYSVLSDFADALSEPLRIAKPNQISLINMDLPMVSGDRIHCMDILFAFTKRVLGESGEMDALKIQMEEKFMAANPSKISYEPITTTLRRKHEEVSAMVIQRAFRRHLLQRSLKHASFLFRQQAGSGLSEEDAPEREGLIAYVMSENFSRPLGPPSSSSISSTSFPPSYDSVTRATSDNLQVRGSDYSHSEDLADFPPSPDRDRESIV
Chain of ACE (P22303 32-614, species assumed): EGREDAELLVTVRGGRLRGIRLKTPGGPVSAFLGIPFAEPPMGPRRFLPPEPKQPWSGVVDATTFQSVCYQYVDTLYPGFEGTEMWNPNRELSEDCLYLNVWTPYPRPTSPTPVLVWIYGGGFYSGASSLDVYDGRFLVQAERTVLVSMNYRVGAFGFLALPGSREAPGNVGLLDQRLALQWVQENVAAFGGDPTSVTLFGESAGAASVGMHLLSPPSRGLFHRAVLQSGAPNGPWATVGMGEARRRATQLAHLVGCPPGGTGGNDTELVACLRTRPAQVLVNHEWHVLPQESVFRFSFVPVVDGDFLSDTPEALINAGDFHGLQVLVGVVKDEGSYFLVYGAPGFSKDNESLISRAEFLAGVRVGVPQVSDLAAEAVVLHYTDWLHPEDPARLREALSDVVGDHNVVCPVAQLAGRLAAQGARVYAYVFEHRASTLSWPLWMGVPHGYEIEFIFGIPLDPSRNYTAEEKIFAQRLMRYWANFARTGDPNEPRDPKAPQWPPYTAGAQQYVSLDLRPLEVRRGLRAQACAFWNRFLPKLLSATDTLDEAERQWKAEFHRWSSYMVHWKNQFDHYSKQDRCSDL

As for 5-hydroxy saxagliptin, in [1], the “dose excreted (renal excretion)” value is roughly 40%, the “mean renal clearance versus mean GFR” value was “did not exceed mean GFR” and the “plasma exposures versus dose” value is reported as “generally increased proportionally with dose”. Besides, the maximum plasma concentration in [2] is 0.047 µg/mL. Also, in data set [3], the “concentration-dependent effect on QTcP” value was “no concentration-dependent effect”. Moreover, the pharmacokinetics versus dose result in data set [4] is “appeared linear with respect to dose”.
What is called IC50 is the midpoint of a concentration-inhibition curve. Turning to `N#C[C@@H]1C[C@@H]2C[C@@H]2N1C(=O)[C@@H](N)C12CC3CC(CC(O)(C3)C1)C2` [saxagliptin], the heart weight result in [5] is on record as “No increase”. Besides, in data set [5] (po), the “Cmax exposure multiple of the 5 mg clinical dose” value is listed as no more than 750 times. In data set [6], the IC50 is greater than 25 µM. Moreover, the “dose excreted (renal excretion)” value in data set [1] (human) was “approximately 20%”. Also, in data set [1], the “mean renal clearance versus mean GFR” value is “exceeded mean GFR” and the “plasma exposures versus dose” value is “generally increased proportionally with dose”. Moreover, in [7] (3 μM), the APD50 was 149 (24) ms, the “APD50 % Change” value is listed as 0 (0) %, the APD90 is reported as 235 (11) ms and the “APD90 % Change” value is given as 2 (1) %. Besides, in data set [7] (3 μM), the “Maximum upstroke velocity (Vmax)” value is listed as 446 (15) v/s, the “Maximum upstroke velocity (Vmax) % Change” value is given as −5 (3) %, the Overshoot is reported as 29 (4) mV and the “Overshoot % Change” value was −7 (12) %. Moreover, in data set [7] (3 μM), the “Resting Membrane Potential” value was −84 (1) mV and the “Resting Membrane Potential % Change” value is listed as 0 (1) %. Further, in [7] (10 μM), the APD50 is on record as 153 (26) ms, the “APD50 % Change” value is 2 (1) %, the APD90 is on record as 237 (14) ms and the “APD90 % Change” value is 2 (1) %. Further, in [7] (10 μM), the “Maximum upstroke velocity (Vmax)” value was 462 (21) v/s, the “Maximum upstroke velocity (Vmax) % Change” value was −2 (3) %, the Overshoot is listed as 32 (4) mV and the “Overshoot % Change” value is 1 (11) %. Besides, in data set [7] (10 μM), the “Resting Membrane Potential” value is −86 (1) mV and the “Resting Membrane Potential % Change” value is 2 (2) %. In addition, in data set [7] (30 μM), the APD50 is listed as 152 (21) ms, the “APD50 % Change” value is listed as 3 (4) %, the APD90 is recorded as 239 (11) ms and the “APD90 % Change” value is listed as 3 (2) %. Further, in [7] (30 μM), the “Maximum upstroke velocity (Vmax)” value is 437 (13) v/s, the “Maximum upstroke velocity (Vmax) % Change” value is given as −7 (5) %, the Overshoot was 29 (5) mV and the “Overshoot % Change” value is reported as −7 (14) %. Further, in [7] (30 μM), the “Resting Membrane Potential” value is given as −85 (2) mV and the “Resting Membrane Potential % Change” value is 1 (3) %. Besides, in data set [8], the “effect on vital sign measurements” value was “no effect” and the “marked abnormalities in AST” value is listed as “No marked abnormalities”. Also, in [3], the “concentration-dependent effect on QTcP” value is reported as “no concentration-dependent effect”. In data set [9], the adverse effects entry is “no adverse effects”. The compound also had a half-inhibitory concentration (IC50) in data set [10] greater than 30 µM. For the same compound, the IC50 in data set [11] was greater than 30 µM. The “multiples of human exposures based on AUC” value in data set [12] is on record as “up to 2200 times”. In addition, the “Cmax exposure multiple of Cmax at the 5 mg oral human dose” value in data set [13] (3.4 mg/kg) is recorded as 280 times. In data set [13] (iv, 0.225 mg/kg), the adverse effects entry was “No adverse effects”. Further, in data set [13] (iv, 3.4 mg/kg), the “decreased blood pressure (reductions)” value is less than 40 mmHg. The IC50 in data set [14] is greater than 30 µM. Moreover, in data set [15], the adverse effects result is given as “no adverse effects”. Further, the “inhibition on any targets assessed” value in data set [16] was less than 25%. The compound also gave an IC50 in [17] greater than 30 µM. Moreover, the 50% inhibitory concentration (IC50) in [18] was greater than 60 µM. Further, the IC50 in data set [19] was greater than 30 µM.
Consider `COc1c(N2C[C@@H]3CCCN[C@@H]3C2)c(F)cc2c(=O)c(C(=O)O)cn(C3CC3)c12` [moxifloxacin], for which, in [3] (400 mg, 4 h after dosing), the “maximum placebo-adjusted, time-matched change from baseline in QTcP” value is listed as 12.52 ms and the “one-sided lower 95% confidence bound of QTcP change at time of maximum effect” value was found to be 7.83 ms. For the same compound, the “individuals with QTcP change from baseline >30 ms” value in data set [3] (after treatment with placebo and moxifloxacin) was found to be 1.
